From US20250328351A1, “CARBONIC ANHYDRASE INHIBITORS AND ANTIBIOTICS AGAINST MULTIDRUG RESISTANT BACTERIA” (Purdue Research Foundation, priority 2018, published 2025) come the findings set out here.

For data set [1], the system named is vancomycin-resistant E. faecium. In words: Mouse model of GI colonization by VRE. The class given is in vivo, C57BL/6 mice. Particulars: 10 mg/kg oral gavage for 8 days; feces as early as 3rd day. From the text: Feasibility in vivo study: AZM reduces VRE load in the intestines and faeces. The promising feature, and the specific and potent antimicrobial activity of CAIs, prompted us to evaluate the in vivo efficacy of AZM in our established mouse model of GI colonization by enterococci with features that mimic the antibiotic-induced enterococcal expansion observed in humans (Mohammad, H. et al., Int J Antimicrob Agents 2018, 51, 897-904; Abdelkhalek, A, et al., PLoS One 2018, 13, e0199710). We tested AZM (two clinical doses 10 and 20 mg/kg) in female 12-week-old C57BL/6 mice (n=5 mice per group) that were sensitized with ampicillin ([…] in drinking water) for 7 days to reduce the microbiota present in the gastrointestinal tract and colonized with 10^8 CFU/mL of vancomycin-resistant E. faecium.
We thought that the rapid absorption of AZM from the gastrointestinal tract would limit their exposure time to VRE present in the gastrointestinal tract.
Mice were treated for 8 days with 10 mg/kg of drugs by oral gavage.

Data set [2] is classed as in vivo. Particulars: 200 mg/kg twice daily (400 mg/kg daily) for three days.
For data set [3], the system named is gut microbiota. Further details: species or system C57BL/6 mice. Particulars: mouse, in vivo, po, 10 mg/kg. How it is done:
CAIs had no major impact on microbiota composition. An extremely promising and innovative feature of CAIs is their narrow spectrum of activity and their ability to decolonize VRE without harming the microbiome. […] To characterize the impact of CAIs administration on the composition of the gut microbiota we performed the following assay6. Female 12-week-old C57BL/6 mice (n=5 mice per group) were exposed to CAIs by oral gavage for 10 days (10 mg/kg daily). Twenty-four hours after last dose, mice were euthanized and cecal and colon contents were harvested. The microbiome was characterized using 16S rDNA gene sequencing. The microbiotas from treated mice were compared to those from a group of control mice. […] However, at the phylum level, we observed decrease in Firmicutes in CAIs treatment groups and likely due to decrease of enterococci as enterococcus is a large genus of the phylum Firmicutes. The Verrucomicrobia and Bacteroidetes remain constant while other phyla increase to fill the remaining percentage from Firmicute loss. […] Indeed, the use of traditional antibiotics can increase the selective pressure and contribute to the selection of other multi-drug-resistant organisms (Kofteridis D. et al., Int J Infect Dis 2009, 13, e313-315).

The test system of data set [4] is Enterococcus faecalis S613 HM-334. Description: MIC, broth microdilution (CLSI). The class given is cell-based. The following applies: Enterococcus faecalis. How it is done: (§1) The minimum inhibitory concentrations (MICs) of the compounds and control drugs were determined using the broth microdilution method, according to guidelines outlined by the Clinical and Laboratory Standards Institute (CLSI). Enterococci strains were grown aerobically overnight on tryptone soya agar plates at 37° C., afterwards a bacterial solution equivalent to 0.5 McFarland standard was prepared and diluted in tryptone soy broth (TSB) to achieve a bacterial concentration of about 5×10^5 CFU/mL and seeded in 96-well well plates. Compounds and control drugs were added in the first row of the 96-well plates and serially diluted along the plates. Plates were then incubated aerobically at 37° C. for 18-20 hours. MICs reported in Table 1 are the minimum concentration of the compounds/control drugs that could inhibit completely the visual growth of the bacteria.
(§2) The minimum inhibitory concentrations (MICs) of CAIs were tested against clinical isolates of vancomycin sensitive and vancomycin resistant Enterococci strains as per the guidelines provided by the Clinical and Laboratory Standards Institute (CLSI). The selected strains of Enterococci were streaked on Tryptic Soy Agar (TSA) plates and let grow for 24 hours at 37° C. Afterwards, a bacterial solution equivalent to 0.5 McFarland standard was prepared and diluted in tryptone soy broth (TSB) or brain heart infusion broth (BHIB) to achieve a bacterial concentration of about 5×10^5 CFU/mL and seeded in 96-well well plates. Compounds and control drugs were added in the first row of the 96-well plates and serially diluted along the plates. Plates were then incubated aerobically at 37° C. for 18-20 hours. MICs reported in Table 5 are the minimum concentration of the compounds/control drugs that could inhibit completely the visual growth of the bacteria.
The minimum inhibitory concentrations (MICs) of CAIs were tested against vancomycin resistant Enterococcus faecalis—S613 HM 334 strain as per the guidelines provided by the Clinical and Laboratory Standards Institute (CLSI). The selected strain was streaked on Tryptic Soy Agar (TSA) plate and let grow for 24 hours at 37° C. […] Compounds and control drugs were added in the first row of the 96-well plates and serially diluted along the plates. Plates were then incubated aerobically at 37° C. for 18-20 hours. MICs reported in table (6) are the minimum concentration of the compounds/control drugs that could inhibit completely the visual growth of the bacteria.
(In general: In broth dilution the organism is exposed to a series of concentrations in liquid medium.)

In data set [5] the test system is Enterococcus fecalis Strain SF 24397 NR31970. Description: MIC, broth microdilution (CLSI). Type of data set: cell-based. How it is done:
as §1, §2

Data set [6] concerns Enterococcus fecalis Strain MMH594 - NR31975. In words: microbe, parasite or virus in culture. Type of data set: cell-based. Particulars: Table 7; TSB. How it is done: as §1
Data set [7] deals with Enterococcus fecalis Strain SF 28073 - NR31972. In words: MIC, broth microdilution (CLSI). The class given is cell-based. The following applies: Table 7; TSB. The method, then:
as §1

Data set [8] concerns Enterococcus faecium Patient #3-1 NR-31912. In words: MIC, broth microdilution (CLSI). The class given is cell-based. Particulars: Table 7; TSB. How it is done: as §1
In data set [9] the test system is Enterococcus fecalis Strain SF24413 NR31971. In words: MIC, broth microdilution (CLSI). The following applies: Table 7; TSB. Type of data set: cell-based. The method, then:
as §1

For data set [10], the system named is Bifidobacterium breve JCP7499 HM 1120. Description: MIC against human normal gut microbiota. The following applies: JCP7499HM1120, 48 h. Type of data set: cell-based. The method, then:
(§3) Three different bacterial strains were used in this experiment; Bifidobacterium (anaerobic Gram positive bacteria), Bacteroides (anaerobic Gram negative bacteria) and Lactobacillus (microaerophilic Gram positive bacteria). Bifidobacterium and Bacteroides were first grown for 48 hours at 37° C., anaerobically using brain heart infusion supplemented (BHIS) agar (Brain heart infusion agar supplemented with hemin, vitamin K and L-cysteine). Lactobacillus was cultivated on MRS agar and incubated in presence of 5% CO2 for 48 hours at 37° C. Each bacterium was suspended in phosphate buffered saline (PBS) to produce a suspension with optical density that matches 0.5 McFarland standard and diluted in brain heart infusion supplemented broth (for Bifidobacterium and Bacteroides) or in MRS broth (for Lactobacillus) to achieve bacterial concentration of approximately 5×10^5 CFU/ml. Bacteria were then seeded in 96-well plates containing serial dilutions of the compounds and incubated as mentioned previously for 48 hours.

Data set [11] deals with Bacteroides fragilis CL07T00C01 HM-709. Description: MIC against human normal gut microbiota. The following applies: 48 h. The class given is cell-based. The method, then:
as §3

For data set [12], the system named is Bacteroides dorei CL02T12C06 HM-719. In words: MIC against human normal gut microbiota. The following applies: Phocaeicola dorei, 48 h. Type of data set: cell-based. The method, then: as §3

SMILES strings stand for the structures. Values after ≈ are worked out from the molar mass of the structure shown. Like-named read-outs stand apart in the source and are kept apart here.

`NS(=O)(=O)c1nnc(NCc2ccccc2C(F)(F)F)s1` [analog 8]: the “reduction of VRE in the feces, cecum and ileum compared with AZM and linezolid” value in [1] is “superior to AZM and linezolid”. The survival entry in data set [2] was “all the mice survived”.

With `CCN[C@H]1C[C@H](C)S(=O)(=O)c2sc(S(N)(=O)=O)cc21` [Dorzolamide], the “taxonomic structure and composition of microbiota” value in data set [3] is “no major shift or change”. The MIC in data set [4] (S613HM334, Table 5, BHIB, read-out: MIC) was greater than 128 µg/mL; in data set [4] (S613HM334, Table 5, TSB, read-out: MIC) it was 8 µg/mL (≈ 24.7 µM); in data set [4] (S613HM334, Table 6, TSB in presence of 4% human serum albumin, read-out: MIC), greater than 256 µg/mL.

In the case of `CN[C@H](CC(C)C)C(=O)N[C@H]1C(=O)N[C@@H](CC(N)=O)C(=O)N[C@H]2C(=O)N[C@H]3C(=O)N[C@H](C(=O)N[C@H](C(=O)O)c4cc(O)cc(O)c4-c4cc3ccc4O)[C@H](O)c3ccc(c(Cl)c3)Oc3cc2cc(c3O[C@@H]2O[C@H](CO)[C@@H](O)[C@H](O)[C@H]2O[C@H]2C[C@](C)(N)[C@H](O)[C@H](C)O2)Oc2ccc(cc2Cl)[C@H]1O` [Vancomycin, reference compound], the MIC in data set [5] (Table 5, BHIB) is 2 µg/mL (≈ 1.38 µM); in data set [5] (Table 5, TSB), 2 µg/mL (≈ 1.38 µM); in data set [5] (Table 7, TSB) it was 2 µg/mL (≈ 1.38 µM); in [6], 2 µg/mL (≈ 1.38 µM); in [7], greater than 64 µg/mL; in data set [8], greater than 64 µg/mL. Also, the MIC is 32 µg/mL (≈ 22.1 µM) in [9]; 8 µg/mL (≈ 5.52 µM) in data set [10]; 64 µg/mL (≈ 44.2 µM) in data set [11]; 64 µg/mL (≈ 44.2 µM) in data set [12]; greater than 64 µg/mL in data set [4] (S613HM334, Table 1, TSB); greater than 128 µg/mL in data set [4] (S613HM334, Table 5, BHIB). Further, the MIC in data set [4] (S613HM334, Table 5, TSB) was greater than 128 µg/mL; in data set [4] (S613HM334, Table 7, TSB), greater than 64 µg/mL.
